Assay results taken from PubChem BioAssay AID248 (DTP/NCI, 2004).
Where “and” joins values, the source holds several entries; their conditions need not be identical. Equal entries are not always repeated. Inconclusive results and toxic doses are left out.

Tested on: L1210 leukemia ip in BDF1 mice, survival T/C
Assay: NCI In Vivo Anticancer Drug Screen. Data for tumor model L1210 Leukemia (intraperitoneal) in B6D2F1 (BDF1) mice
Details: endpoint: mean survival time, higher = longer survival
Summary of the method: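 Each compound was tested against a transplantable tumor grown in mice. The endpoint was survival, with treated animals benchmarked against vehicle controls as a simple ratio.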

CC[n+]1ccc(-c2ccc(NC(=O)c3ccc(C(=O)Nc4ccc(-c5cc[n+](CC)cc5)cc4)cc3)cc2)cc1
T/C (dose: 2.5 mg/kg/injection, schedule: Q01DX015 (ip), vehicle: carboxymethylcellulose (CMC)): 224 % of control | T/C (dose: 3.7 mg/kg/injection, schedule: Q01DX001 (ip), vehicle: carboxymethylcellulose (CMC)): 118 % of control | T/C (dose: 5.0 mg/kg/injection, schedule: Q01DX015 (ip), vehicle: carboxymethylcellulose (CMC)): 157 % of control | T/C (dose: 7.5 mg/kg/injection, schedule: Q01DX001 (ip), vehicle: carboxymethylcellulose (CMC)): 176 % of control | T/C (dose: 10.0 mg/kg/injection, schedule: Q01DX015 (ip), vehicle: carboxymethylcellulose (CMC)): 123 % of control | T/C (dose: 15.0 mg/kg/injection, schedule: Q01DX001 (ip), vehicle: carboxymethylcellulose (CMC)): 163 % of control | T/C (dose: 20.0 mg/kg/injection, schedule: Q01DX015 (ip), vehicle: carboxymethylcellulose (CMC)): 94 % of control | T/C (dose: 30.0 mg/kg/injection, schedule: Q01DX001 (ip), vehicle: carboxymethylcellulose (CMC)): 177 % of control and 194 % of control | T/C (dose: 30.0 mg/kg/injection, schedule: Q01DX015 (ip), vehicle: carboxymethylcellulose (CMC)): 86 % of control | T/C (dose: 40.0 mg/kg/injection, schedule: Q01DX001 (ip), vehicle: carboxymethylcellulose (CMC)): 192 % of control and 296 % of control | T/C (dose: 60.0 mg/kg/injection, schedule: Q01DX001 (ip), vehicle: carboxymethylcellulose (CMC)): 211 % of control and 305 % of control and 307 % of control | T/C (dose: 90.0 mg/kg/injection, schedule: Q01DX001 (ip), vehicle: carboxymethylcellulose (CMC)): 157 % of control and 228 % of control | T/C (dose: 150.0 mg/kg/injection, schedule: Q01DX001 (ip), vehicle: carboxymethylcellulose (CMC)): 103 % of control | T/C (dose: 225.0 mg/kg/injection, schedule: Q01DX001 (ip), vehicle: carboxymethylcellulose (CMC)): 91 % of control

Br[SiH](Br)Br
T/C (dose: 25.6 mg/kg/injection, schedule: Q04DX002 (ip), vehicle: saline with Tween-80): 93 % of control | T/C (dose: 64.0 mg/kg/injection, schedule: Q04DX002 (ip), vehicle: saline with Tween-80): 93 % of control | T/C (dose: 100.0 mg/kg/injection, schedule: Q04DX003 (ip), vehicle: saline with Tween-80): 101 % of control | T/C (dose: 160.0 mg/kg/injection, schedule: Q04DX002 (ip), vehicle: saline with Tween-80): 90 % of control | T/C (dose: 200.0 mg/kg/injection, schedule: Q04DX003 (ip), vehicle: saline with Tween-80): 92 % of control | T/C (dose: 400.0 mg/kg/injection, schedule: Q04DX002 (ip), vehicle: saline with Tween-80): 97 % of control | T/C (dose: 400.0 mg/kg/injection, schedule: Q04DX003 (ip), vehicle: saline with Tween-80): 92 % of control

COC(=O)Cc1oc(=O)n(-c2ccccc2)c(=O)c1C(=O)OC
T/C (dose: 12.5 mg/kg/injection, schedule: Q04DX002 (ip), vehicle: gum acacia): 94 % of control | T/C (dose: 25.0 mg/kg/injection, schedule: Q04DX002 (ip), vehicle: gum acacia): 116 % of control | T/C (dose: 50.0 mg/kg/injection, schedule: Q04DX002 (ip), vehicle: gum acacia): 108 % of control

O=C1OC(c2cccc(Cl)c2)=N/C1=C\c1ccccc1
T/C (dose: 100.0 mg/kg/injection, schedule: Q04DX002 (ip), vehicle: Klucel (hydroxypropylcellulose) (HPC)): 98 % of control | T/C (dose: 400.0 mg/kg/injection, schedule: Q04DX002 (ip), vehicle: Klucel (hydroxypropylcellulose) (HPC)): 104 % of control

N/C(=N\N=C\c1ccc(-c2ccccc2)cc1)N[N+](=O)[O-]
T/C (dose: 50.0 mg/kg/injection, schedule: Q01DX001 (ip), vehicle: carboxymethylcellulose (CMC)): 104 % of control | T/C (dose: 100.0 mg/kg/injection, schedule: Q01DX001 (ip), vehicle: carboxymethylcellulose (CMC)): 100 % of control | T/C (dose: 200.0 mg/kg/injection, schedule: Q01DX001 (ip), vehicle: carboxymethylcellulose (CMC)): 93 % of control

COc1ccc2c3c(ccc2c1)NC(C(=O)O)CC3 (stereo not drawn)
T/C (dose: 100.0 mg/kg/injection, schedule: Q01DX009 (ip), vehicle: Klucel (hydroxypropylcellulose) (HPC)): 97 % of control | T/C (dose: 200.0 mg/kg/injection, schedule: Q01DX009 (ip), vehicle: Klucel (hydroxypropylcellulose) (HPC)): 96 % of control | T/C (dose: 400.0 mg/kg/injection, schedule: Q01DX009 (ip), vehicle: Klucel (hydroxypropylcellulose) (HPC)): 96 % of control

CCN(CC)CCC(=O)c1cccs1
T/C (dose: 100.0 mg/kg/injection, schedule: Q01DX009 (ip), vehicle: saline): 87 % of control | T/C (dose: 200.0 mg/kg/injection, schedule: Q01DX009 (ip), vehicle: saline): 89 % of control

CC(C)c1nc2c(=O)[nH]cnc2o1
T/C (dose: 25.0 mg/kg/injection, schedule: Q01DX005 (ip), vehicle: saline): 105 % of control | T/C (dose: 50.0 mg/kg/injection, schedule: Q01DX005 (ip), vehicle: saline): 107 % of control | T/C (dose: 100.0 mg/kg/injection, schedule: Q01DX005 (ip), vehicle: saline): 95 % of control and 102 % of control | T/C (dose: 200.0 mg/kg/injection, schedule: Q01DX005 (ip), vehicle: saline): 100 % of control

COc1ccc(CSc2ncnc3nc[nH]c23)cc1
T/C (dose: 6.0 mg/kg/injection, schedule: Q01DX015 (ip), vehicle: carboxymethylcellulose (CMC)): 92 % of control | T/C (dose: 12.0 mg/kg/injection, schedule: Q01DX015 (ip), vehicle: carboxymethylcellulose (CMC)): 91 % of control | T/C (dose: 25.0 mg/kg/injection, schedule: Q01DX015 (ip), vehicle: carboxymethylcellulose (CMC)): 101 % of control | T/C (dose: 50.0 mg/kg/injection, schedule: Q01DX015 (ip), vehicle: carboxymethylcellulose (CMC)): 101 % of control | T/C (dose: 200.0 mg/kg/injection, schedule: Q01DX015 (ip), vehicle: carboxymethylcellulose (CMC)): 111 % of control

COC1C(=O)CCC2(CO2)C1(O)C1(C)OC1CC=C(C)C (stereo not drawn)
T/C (dose: 50.0 mg/kg/injection, schedule: Q01DX009 (ip), vehicle: saline with Tween-80): 104 % of control | T/C (dose: 100.0 mg/kg/injection, schedule: Q01DX009 (ip), vehicle: saline with Tween-80): 109 % of control | T/C (dose: 100.0 mg/kg/injection, schedule: Q04DX003 (ip), vehicle: saline): 106 % of control | T/C (dose: 200.0 mg/kg/injection, schedule: Q01DX009 (ip), vehicle: saline with Tween-80): 87 % of control | T/C (dose: 200.0 mg/kg/injection, schedule: Q04DX003 (ip), vehicle: saline): 100 % of control
